The source of these data is patent publication US20250195463A1, “ORGANOMETALLIC COMPLEX, CONTROLLED-RELEASE MULTI-FUNCTIONAL DRUG, PHARMACEUTICAL COMPOSITION, PROCESSES FOR THE PREPARATION THEREOF AND THEIR USE” (FACULDADE DE CIÊNCIAS DA UNIVERSIDADE DE LISBOA, priority 2022, published 2025).

The subject of data set [1] is MDA-MB-231 (FGFR−). Nature of the data set: MTT cytotoxicity assay. Particulars: 48 h. The procedure: (§1) By way of example, the in vitro cytotoxicity of the conjugate RuPC1, complex 4 and peptide P2 was determined in four human breast cancer cell lines with different levels of expression of the receptor FGFR, namely MDA-MB-231 (FGFR−), MCF-7 (FGFR−), SK-BR-3 (FGFR+), and MDA-MB-134-VI (FGFR+). The cytotoxicity of RuPC1 was also determined in the stated cell lines at controlled pH 6.8 and 7.4. The cytotoxicity of the complexes 5, 8, 9, and the reference complex (2,2′-bipyridyl)(triphenylphosphane)(f-cyclopentadienyl)ruthenium(II) trifluoromethanesulfonate, [RuCp(PPh3)(bipy)][CF3SO3] (TM34) was only determined in the cell line MDA-MB-231. All the cell lines were from the American Type Culture Collection (ATCC) and were cultured in Dulbecco's Modified Eagle Medium+Glutamax-I (Gibco) supplemented with 10% fetal bovine serum (FBS) and 1% antibiotics, excepting the MDA-MB-134-VI for which it was used the double amount of FBS. The cell cultures were kept in an incubator Heraeus at 37° C. under humidified atmosphere at 5% CO2. The cell viability was evaluated resorting to the MTT ([3-(4,5-dimethylthiazol-2-yl)-2,5-diphenyltetrazolium bromide]) colorimetric assay, which is based on the reduction of the tetrazolium salt to purple formazan by mitochondrial dehydrogenases in metabolically active cells. For the assays, the cells were seeded in 96-well plates (2×10^4 to 3×10^4 cells/200 μL) and allowed to adhere overnight. The compounds were first dissolved in dimethyl sulfoxide to obtain 10 mM stock solutions, further used to prepare the working solutions, at 0.1 to 100 μM, by dilution in the cell culture medium. Alternatively, for the assays at controlled pH 6.8 and 7.4, RuPC1 was first dissolved in a solution of 15% dimethyl sulfoxide/85% phosphate buffer (10 mM in water) to obtain 1.5 mM stock solutions further incubated for 48 hours at both pH values prior to be used to prepare the working solutions, at 0.1 to 50 μM, by dilution in the cell culture medium. In both cases, after continuous exposure of the cells to the compounds for 48 h at 37° C., the medium was removed and the cells were incubated with 200 μL of MTT solution (0.5 mg/mL) for 3 h. Then, the solution was discarded and the purple formazan formed by the viable cells was dissolved in 200 μL of dimethyl sulfoxide. The cell viability (%) was determined relative to the control (cells incubated without compounds) by measuring the absorbance at 570 nm on a PowerWave Xs Bio-Tek Instruments plate spectrophotometer. The respective values of the half maximal inhibitory concentration (IC50) were calculated with the software GraphPad Prism. All the compounds were tested in at least two independent experiments, each comprising six replicates per concentration.
For orientation: Formazan colour is commonly taken as a measure of viable cells.

Data set [2] deals with MCF-7 (FGFR−). Description: MTT cytotoxicity assay. Particulars: human, 48 h. The procedure:
as §1

Data set [3] deals with MDA-MB-134-VI (FGFR+). Nature of the data set: MTT cytotoxicity assay. The following applies: human, 48 h. The procedure: as §1
The subject of data set [4] is SK-BR-3 (FGFR+). Description: MTT cytotoxicity assay. The following applies: human, 48 h. The procedure:
as §1

In data set [5] the test system is four human breast cancer cell lines with different levels of expression of the receptor FGFR. Nature of the data set: MTT cytotoxicity assay, comparisons across the cell line panel. Format: cell-based. Particulars: adopted experimental conditions (48 h). The procedure:
By way of example, the in vitro cytotoxicity of the conjugate RuPC1, complex 4 and peptide P2 was determined in four human breast cancer cell lines with different levels of expression of the receptor FGFR, namely MDA-MB-231 (FGFR−), MCF-7 (FGFR−), SK-BR-3 (FGFR+), and MDA-MB-134-VI (FGFR+). The cytotoxicity of RuPC1 was also determined in the stated cell lines at controlled pH 6.8 and 7.4. The cytotoxicity of the complexes 5, 8, 9, and the reference complex (2,2′-bipyridyl)(triphenylphosphane)(f-cyclopentadienyl)ruthenium(II) trifluoromethanesulfonate, [RuCp(PPh3)(bipy)][CF3SO3] (TM34) was only determined in the cell line MDA-MB-231. […] The cell viability was evaluated resorting to the MTT ([3-(4,5-dimethylthiazol-2-yl)-2,5-diphenyltetrazolium bromide]) colorimetric assay, which is based on the reduction of the tetrazolium salt to purple formazan by mitochondrial dehydrogenases in metabolically active cells. […] The cell viability (%) was determined relative to the control (cells incubated without compounds) by measuring the absorbance at 570 nm on a PowerWave Xs Bio-Tek Instruments plate spectrophotometer. The respective values of the half maximal inhibitory concentration (IC50) were calculated with the software GraphPad Prism. […]

Molecules are shown by their SMILES. pIC50: −log10 of the molar value. Like-named read-outs stand apart in the source and are kept apart here. Where a SMILES comes first, the peptide text is derived from it. [ ]: non-standard residue; d: D form. The star is where a group is joined. Levulinoyl = CC(=O)CCC(=O)*

Broadly, the pIC50 is the negative decadic logarithm of the IC50, by convention in mol/L.

As for `O=S(=O)([O-])C(F)(F)F.[Ru+2].c1cc[cH-]c1.c1ccc(-c2ccccn2)nc1.c1ccc(P(c2ccccc2)c2ccccc2)cc1` [TM34, (2,2′-bipyridyl)(triphenylphosphane)(f-cyclopentadienyl)ruthenium(II) trifluoromethanesulfonate, reference compound], the pIC50 in data set [1] (read-out: Cytotoxic activity expressed as IC50, Table 5, MDA-MB-231, 37° C.) is 6.28.
Consider `CC(=O)CCC(=O)N[C@@H](C(=O)N[C@@H](CO)C(=O)N1CCC[C@H]1C(=O)N1CCC[C@@H]1C(=O)N[C@@H](CC(C)C)C(=O)N[C@H](C(=O)N[C@@H](CC(C)C)C(=O)NCC(=O)N[C@@H](CCC(N)=O)C(=O)N[C@@H](CC(C)C)C(=O)N[C@@H](CC(C)C)C(=O)N[C@@H](CO)C(N)=O)[C@@H](C)O)C(C)C` [peptide P2, 4-oxopetanoyl-NH-^1valine-^2serine-^3proline-^4proline-^5leucine-^6threonine-^7leucine-^8glycine-^9glutamine-^10leucine-^11leucine-^12serine-CONH2] (Levulinoyl-[dV]SP[dP]LTLGQLLS-NH2), for which the pIC50 in data set [2], in data set [3], in data set [1] (human) and in data set [4] was under 4.00 each time. Also, in data set [5], the “Cytotoxic activity in words” value is recorded as “did not show significant cytotoxic activity”.
